Results as given in patent publication US7323447B2, “Hepatitis C virus inhibitors” (Bristol-Myers Squibb Company, priority 2005, dated 2008).
Where two headings read alike, the source gives them in different places.

System: HCV replicon in HUH-7 cells
Test: HCV replicon FRET assay
Format: cell-based, Hepatitis C virus (strain 1b)
Details: Hepatitis C virus
Method in brief: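 HUH-7 cells carrying a genotype 1b subgenomic neo replicon (NS3–NS5B) treated 4 days at 37 °C with compound in 0.5% DMSO final. CC50 from alamarBlue fluorescence after 4 h; cells then lysed with FRET protease substrate at 10 μM final and read kinetically at 340/490 nm to give EC50.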

SMILES: C=C[C@@H]1C[C@]1(NC(=O)[C@@H]1C[C@@H](OC(=O)N2Cc3cccc(F)c3C2)CN1C(=O)[C@@H](OC(=O)NC(C)(C)C)C(C)(C)C)C(=O)NS(=O)(=O)C1CC1 [Example 56Compound 56]
- EC50 (Huh-7, 96 h, replicon FRET assay, HUH-7, 4 days, read-out: EC50 value in the replicon FRET assay): 742 nM
- EC50 (Huh-7, read-out: EC50 Range, HCV replicon cell assay, Table 1): 500 to 5000 nM
